We go through 1 compound from patent publication US8835392B2, “Mimetic peptides and the use thereof in the form of 20S, 26S and immunoproteasome inhibitors” (Technische Universität, priority 2005, dated 2014).

For assay [1], the target named is T1, 20S proteasome β2 trypsin-like activity (VGR-MCA) (Homo sapiens, UniProt P49720+Q99436).
T1 construct: Proteasomes were isolated from red blood cells; from tissue; host or cells: red blood cells
As to the kind of experiment: Protease assay, trypsin-like activity of isolated 20S proteasomes. Type of assay: biochemical. Conditions: isolated 20S proteasome; VGR-MCA 50 μM; 15 min pre-incubation; read-out: IC50 β2 Trypsin-like (R). How it is done:
(§1) Proteasomes were isolated from red blood cells. Cells were lysed with DTT (1 mM), and the stroma-free supernatant was loaded on DEAE-sepharose (Toyopearls). Proteasome was eluted with an NaCl-gradient in TEAD (20 mM TrisCl pH 7.4, 1 mM EDTA, 1 mM azide, 1 mM DTT) of 100 to 300 mM NaCl. Proteasome was concentrated using ammonium sulfate-precipitation (between 40 and 70% saturation) and was separated in a 10-40% sucrose-gradient through centrifugation at 40.000 rpm for 16 hours (SW40; L7, Beckman & Coulter). Finally, the proteasomes were purified on a MonoQ-column and eluted with an NaCl-gradient at about 280 mM NaCl. The fractions containing purified proteasome were dialysed against 50 mM NaCl in TEAD and stored on ice. The purity was determined using SDS-PAGE.
(§2) Suc-LLVY-AMC, Z-VGR-AMC and LLE-AMC (BACHEM, Calbiochem) was used, in order to determine the chymotrypsin-like, trypsin-like or caspase-like (post-acidic)-activities of the proteasome. Substrate was incubated with proteasome at 37° C. in assay-buffer (20 mM Tris/Cl, pH 7.2, 1 mM EDTA, 1 mM DTT) for one hour. 100 ng proteasome was pre-incubated with 0.01-10 μM of the inhibitor for […]. The reaction was started by the addition of substrate (50 μM). The AMC as released was detected using fluorescence emission at 460 nm (excitation at 390 nm) using a TECAN-fluorimeter. The activity was calculated in fluorescence-units. The inhibition is depicted by IC50-values.
The effects thereof were compared with the one of the commonly used proteasomal inhibitor 3 (MG132). The chymotrypsin-like (Suc-LLVY-AMC), the trypsin-like (Bz-VGR-AMC), and the caspase-like (Z-LLE-AMC)-activities of 20S proteasomes were determined following incubation for one hour at 37° C.
(§3) The IC50-values form the inhibition of the proteasome were calculated at increasing concentrations of the inhibitor. The samples were pre-incubated for 15 min in ice. The assay was started through the addition of 50 μM of one of the following fluorogenic peptide substrates:
(§4) The release of MCA was determined at 460 nm emission (excitation 390 nm). The IC50-values as calculated for MG132 served as controls.

Assay [2] relates to T2, 20S proteasome of S. cerevisiae.
T2 construct: crystals of the 20S proteasome of S. cerevisiae were generated in hanging drops
Kind of assay: Co-crystallisation with 20S yeast-proteasome. How it is done:
For this, crystals of the 20S proteasome of S. cerevisiae were generated in hanging drops at 24° C., as described earlier (6), and incubated for 60 min with compound 15. The protein concentration as used for the crystallization was 40 mg/ml in Tris-HCl (10 mM, pH 7.5), and EDTA (1 mM). The drops contained 3 μl protein and 2 μl reservoir-solution, containing 30 mM magnesium acetate, 100 mM morpholino ethanesulfonic acid (pH 7.2) and 10% MPD.
The space group belonged to P21 with cellular dimensions of a=135.8 Å, b=300.1 ÅA, c=144.4 Å, and (β=113.1°. Data for 2.8 Å were collected using synchrotron-radiation with λ=1.05 Å on the BW6-beamline of the DESY, Hamburg, Germany. Crystals were soaked in a cryo-protecting buffer (30% MPD, 20 mM magnesium acetate, 100 mM morpholino ethanesulfonic acid pH 6.9), and frozen and in a stream of liquid nitrogen gas at 90K (Oxford Cryo Systems). X-ray-intensities were evaluated using the MOSFILM program-package (Version 6.1), and data reduction was performed with CCP4 (24). The anisotropy of the diffraction was corrected by a general anisotropic temperature factor through comparison of the observed and calculated structure-amplitudes using the program X-PLOR (25). An overall number of 2383416 reflexions that led to 248616 unique reflexions (96.9% completeness), was collected. […]

The next assay concerns Fibroblasts. As to the kind of experiment: Viability of fibroblasts (control). The assay is classed as cell-based. Conditions: Fibroblast, identical conditions (72 h), read-out: concentration for 50% reduction of the viability.
Assay [3] deals with Human melanoma cells (MeWo). As to the kind of experiment: Cell cycle arrest in MeWo cells, propidium iodide FACS. Conditions: 24 hours. The assay is classed as cell-based. How it is done: A, Human melanoma cells (MeWo) were treated with increasing concentrations of the compounds 15 or 3 (MG132) for 72 hours. The viability of the cells after the treatment with compound 15 (-♦-) and with MG132 (-□-) was detected by a crystal-violet-staining. B and C, MeWo cells were co-cultivated with the compounds 15 and 3 (MG132) for 24 hours. The cells were subsequently fixed in 70% ethanol, and treated with RNAse A. The DNA was stained with propidium iodide (5 μg/ml), and analysed by means of FACS (FACS Calibur flow cytometer; Beckton Dickinson). The statistical significance was detected by the chi-square-test. The relative distribution of the cells that were present in the G1-(black), in the S-(white) or in the G2 phase (hatched) of the cellular cycle is shown for both compounds as examined (15 in B and MG132 in C).
Human melanoma cells (MeWo) were with the compounds 15 and 3 (MG132) for 24 hours co-cultivated. The cells were washed with PBS, in 70% ethanol fixed and subsequently treated with RNAse A. The DNA was stained with propidium iodide (5 μg/ml) and analysed by means of flow-cytometry (FACS Calibur flow cytometer; Beckton Dickinson). The relative dispersion of the cells that were present in different phases of the cell cycle, could thus be detected. […] The statistical significance was detected by the Chi-square test.

Assay [4] addresses T3, 20S proteasome β5 chymotrypsin-like activity (GLL-MCA) (Homo sapiens, UniProt P20618+P28074).
T3 construct: Proteasomes were isolated from red blood cells; from tissue; host or cells: red blood cells
As to the kind of experiment: Protease assay, chymotrypsin-like activity of isolated 20S proteasomes (GLL substrate). The assay is classed as biochemical. Particulars: isolated 20S proteasome; GLL-MCA 50 μM; 15 min pre-incubation; read-out: IC50 β5 Chym.-like (L). Here is the method:
as §1, §2, §3, §4

pIC50: −log10 of the molar value. Where a SMILES comes first, the peptide text is derived from it. The star is where a group is joined. Cbz = O=C(OCc1ccccc1)*; OtBu = CC(C)(C)O*

As for `CC(C)CC(C=O)NC(=O)C(CC(=O)OC(C)(C)C)NC(=O)C(CC(C)C)NC(=O)OCc1ccccc1` (stereo not drawn) [Compound 15, Z-Leu-Asp(O^tBu)Leu-CHO] (Cbz-Leu-Asp(OtBu)-Leu-aldehyde; configuration not given here), the pIC50 is 6.81 in assay [1], 6.00 to 6.30 in the assay with Fibroblasts and 7.51 in assay [4]. Besides, in assay [2] (2.8 Å), the “binding mode to Thr1Oγ in crystal structure” value is “covalent hemiacetal bond”. Further, the “specificity for the subunits in crystal structure” value in assay [2] (high concentrations of the inhibitors (10 mM)) is listed as “no specificity for the subunits”. The “concentration giving arrest of the cell cycle in the G2 phase” value in assay [3] is reported as 50 nM.
